Assay: Functional Dkk1-LRP5-TCF-Luciferase Assay in U2OS Cells (table columns: A=MAX FOLD Induction/DMSO CONTROL; B=fold induction @ 2.0 uM; C=fold induction @ 20.0 uM)
Format: cell-based, Human
Conditions: Homo sapiens, U2OS; for fold induction at 2 µM: 2.0 uM compound; for fold induction at 20 µM: 20.0 uM compound
Outline: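 U2OS cells co-transfected with 16×TCF-TK-firefly luciferase, TK-Renilla control, Wnt3a and Dkk1, then frozen; thawed cells (~5,000/well, ~5% FBS, phenol red-free RPMI) incubated ~20 h at 37° C. with compound (0.25% DMSO). Firefly luminescence (Bright-Glo) normalized to DMSO mean as fold induction.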

SMILES	fold induction at 2 µM	fold induction at 20 µM
Cc1nc2c(-c3ccc4ccccc4c3)ccnc2n1[C@H]1CCNC1 [2-methyl-7-(2-naphthyl)-3-[(3S)-pyrrolidin-3-yl]-3H-imidazo[4,5-b]pyridine]	1.57	0.4
O=[N+]([O-])c1cc(-c2nc3cc(-c4ccc5ccccc5c4)cnc3n2C2CCNCC2)ccc1N1CCOCC1 [2-(4-morpholin-4-yl-3-nitrophenyl)-6-(2-naphthyl)-3-piperidin-4-yl-3H-imidazo[4,5-b]pyridine]	1.01	–
Brc1ccccc1-c1nc2c(-c3ccc4ccccc4c3)ccnc2n1C1CCNCC1 [2-(2-bromophenyl)-7-(2-naphthyl)-3-piperidin-4-yl-3H-imidazo[4,5-b]pyridine]	1.6	–
Oc1ccc(-c2nc3c(-c4ccc5ccccc5c4)ccnc3n2C2CCNCC2)cc1 [4-[7-(2-naphthyl)-3-piperidin-4-yl-3H-imidazo[4,5-b]pyridin-2-yl]phenol]	1.3	–
CCNC(=O)N1CCC(n2cnc3c(-c4ccc5ccccc5c4)ccnc32)CC1 [N-ethyl-4-[7-(2-naphthyl)-3H-imidazo[4,5-b]pyridin-3-yl]piperidine-1-carboxamide]	1.52	1.29
Fc1cccc(-c2nc3c(-c4ccc5ccccc5c4)ccnc3n2C2CCNCC2)c1 [2-(3-fluorophenyl)-7-(2-naphthyl)-3-piperidin-4-yl-3H-imidazo[4,5-b]pyridine]	1.55	–
c1ccc2cc(-c3cnc4c(c3)nc(-c3cc5ccccc5o3)n4C3CCNCC3)ccc2c1 [2-(1-benzofuran-2-yl)-6-(2-naphthyl)-3-piperidin-4-yl-3H-imidazo[4,5-b]pyridine]	1	–
FC(F)(F)c1cccc(-c2nc3c(-c4ccc5ccccc5c4)ccnc3n2C2CCNCC2)c1Cl [2-[2-chloro-3-(trifluoromethyl)phenyl]-7-(2-naphthyl)-3-piperidin-4-yl-3H-imidazo[4,5-b]pyridine]	1.21	–
Cc1ccc(-c2nc3c(-c4ccc5ccccc5c4)ccnc3n2C2CCNCC2)o1 [2-(5-methyl-2-furyl)-7-(2-naphthyl)-3-piperidin-4-yl-3H-imidazo[4,5-b]pyridine]	1.17	–
CC(C)c1ccc(-c2nc3cc(-c4ccc5ccccc5c4)cnc3n2C2CCNCC2)cc1 [2-(4-isopropylphenyl)-6-(2-naphthyl)-3-piperidin-4-yl-3H-imidazo[4,5-b]pyridine]	1.14	–
c1ccc(-c2nc3cc(-c4ccc5ccccc5c4)cnc3n2C2CCNCC2)cc1 [6-(2-naphthyl)-2-phenyl-3-piperidin-4-yl-3H-imidazo[4,5-b]pyridine]	1.6	–
CCCc1nc2c(-c3ccc4ccccc4c3)ccnc2n1C1CCNCC1 [7-(2-naphthyl)-3-piperidin-4-yl-2-propyl-3H-imidazo[4,5-b]pyridine]	1.93	–
c1ccc2cc(-c3cnc4c(c3)nc(-c3ccncc3)n4C3CCNCC3)ccc2c1 [6-(2-naphthyl)-3-piperidin-4-yl-2-pyridin-4-yl-3H-imidazo[4,5-b]pyridine]	1.56	0.005
Cn1cccc1-c1nc2c(-c3ccc4ccccc4c3)ccnc2n1C1CCNCC1 [2-(1-methyl-1H-pyrrol-2-yl)-7-(2-naphthyl)-3-piperidin-4-yl-3H-imidazo[4,5-b]pyridine]	1.52	0.01
Fc1cccc(F)c1-c1nc2c(-c3ccc4ccccc4c3)ccnc2n1C1CCNCC1 [2-(2,6-difluorophenyl)-7-(2-naphthyl)-3-piperidin-4-yl-3H-imidazo[4,5-b]pyridine]	1.11	–
c1ccc2cc(-c3cnc4c(c3)ncn4C3CCNCC3)ccc2c1 [6-(2-naphthyl)-3-piperidin-4-yl-3H-imidazo[4,5-b]pyridine]	1.53	–
Cn1c(=O)n(C2CCN(S(C)(=O)=O)CC2)c2nccc(-c3ccc4ccccc4c3)c21 [1-methyl-3-[1-(methylsulfonyl)piperidin-4-yl]-7-(2-naphthyl)-1,3-dihydro-2H-imidazo[4,5-b]pyridin-2-one]	1.52	0.97
Cc1nc2c(-c3ccc4ccccc4c3)ccnc2n1[C@@H]1CCNC1 [2-methyl-7-(2-naphthyl)-3-[(3R)-pyrrolidin-3-yl]-3H-imidazo[4,5-b]pyridine]	1.44	0.55
CC(C)NC(=O)N1CCC(n2cnc3c(-c4ccc5ccccc5c4)ccnc32)CC1 [N-isopropyl-4-[7-(2-naphthyl)-3H-imidazo[4,5-b]pyridin-3-yl]piperidine-1-carboxamide]	1.2	0.84
Cc1nc2c(-c3ccc4ccccc4c3)ccnc2n1CC1CCNCC1 [2-methyl-7-(2-naphthyl)-3-(piperidin-4-ylmethyl)-3H-imidazo[4,5-b]pyridine]	1.12	0.08
O=c1[nH]cc(-c2nc3c(-c4ccc5ccccc5c4)ccnc3n2C2CCNCC2)c(=O)[nH]1 [5-[7-(2-naphthyl)-3-piperidin-4-yl-3H-imidazo[4,5-b]pyridin-2-yl]pyrimidine-2,4(1H,3H)-dione]	1.94	1.91

SMILES	fold induction at 2 µM	fold induction at 20 µM
c1ccc2cc(-c3cnc4c(c3)nc(-c3cccc5cccnc35)n4C3CCNCC3)ccc2c1 [8-[6-(2-naphthyl)-3-piperidin-4-yl-3H-imidazo[4,5-b]pyridin-2-yl]quinoline]	1.61	–
c1ccc2cc(-c3ccnc4c3nc(-c3cccc5ccccc35)n4C3CCNCC3)ccc2c1 [2-(1-naphthyl)-7-(2-naphthyl)-3-piperidin-4-yl-3H-imidazo[4,5-b]pyridine]	1.39	–
O=[N+]([O-])c1ccc(-c2nc3c(-c4ccc5ccccc5c4)ccnc3n2C2CCNCC2)s1 [7-(2-naphthyl)-2-(5-nitro-2-thienyl)-3-piperidin-4-yl-3H-imidazo[4,5-b]pyridine]	1.83	0.01
Clc1cncc(Cl)c1-c1nc2c(-c3ccc4ccccc4c3)ccnc2n1C1CCNCC1 [2-(3,5-dichloropyridin-4-yl)-7-(2-naphthyl)-3-piperidin-4-yl-3H-imidazo[4,5-b]pyridine]	1.95	0.29
c1coc(-c2nc3cc(-c4ccc5ccccc5c4)cnc3n2C2CCNCC2)c1 [2-(2-furyl)-6-(2-naphthyl)-3-piperidin-4-yl-3H-imidazo[4,5-b]pyridine]	1.27	0.01
O=[N+]([O-])c1ccccc1-c1nc2cc(-c3ccc4ccccc4c3)cnc2n1C1CCNCC1 [6-(2-naphthyl)-2-(2-nitrophenyl)-3-piperidin-4-yl-3H-imidazo[4,5-b]pyridine]	1.13	–
Cc1ccc(-c2nc3c(-c4ccc5ccccc5c4)ccnc3n2C2CCNCC2)c(C)c1 [2-(2,4-dimethylphenyl)-7-(2-naphthyl)-3-piperidin-4-yl-3H-imidazo[4,5-b]pyridine]	1.3	–
c1ccc2cc(-c3ccnc4c3nc(-c3cnc5ccccc5c3)n4C3CCNCC3)ccc2c1 [3-[7-(2-naphthyl)-3-piperidin-4-yl-3H-imidazo[4,5-b]pyridin-2-yl]quinoline]	1.44	–
c1ccc2cc(-c3ccc4ncn(C5CCNCC5)c4n3)ccc2c1 [5-(2-naphthyl)-3-piperidin-4-yl-3H-imidazo[4,5-b]pyridine]	0.32	–
Clc1nc2ccccc2cc1-c1nc2c(-c3ccc4ccccc4c3)ccnc2n1C1CCNCC1 [2-chloro-3-[7-(2-naphthyl)-3-piperidin-4-yl-3H-imidazo[4,5-b]pyridin-2-yl]quinoline]	1.6	–
c1ccc2cc(-c3ccnc4c3nc(-c3cc5ccccc5o3)n4C3CCNCC3)ccc2c1 [2-(1-benzofuran-2-yl)-7-(2-naphthyl)-3-piperidin-4-yl-3H-imidazo[4,5-b]pyridine]	1.53	0.01
Cc1cccc(-c2nc3c(-c4ccc5ccccc5c4)ccnc3n2C2CCNCC2)c1 [2-(3-methylphenyl)-7-(2-naphthyl)-3-piperidin-4-yl-3H-imidazo[4,5-b]pyridine]	1.91	–
O=C(N1CCOCC1)N1CCC(n2c(=O)[nH]c3c(-c4ccc5ccccc5c4)ccnc32)CC1 [3-[1-(morpholin-4-ylcarbonyl)piperidin-4-yl]-7-(2-naphthyl)-1,3-dihydro-2H-imidazo[4,5-b]pyridin-2-one]	1.33	1.02
Cc1ccc(-c2nc3cc(-c4ccc5ccccc5c4)cnc3n2C2CCNCC2)cc1 [2-(4-methylphenyl)-6-(2-naphthyl)-3-piperidin-4-yl-3H-imidazo[4,5-b]pyridine]	1	–
c1ccc2cc(-c3ccnc4c3nc(-c3ccc5ccccc5c3)n4C3CCNCC3)ccc2c1 [2,7-di-2-naphthyl-3-piperidin-4-yl-3H-imidazo[4,5-b]pyridine]	1.02	–
COc1ccccc1-c1nc2c(-c3ccc4ccccc4c3)ccnc2n1C1CCNCC1 [2-(2-methoxyphenyl)-7-(2-naphthyl)-3-piperidin-4-yl-3H-imidazo[4,5-b]pyridine]	1.99	–
CC(C)NC(=O)N1CCC(n2c(=O)n(C)c3c(-c4ccc5ccccc5c4)ccnc32)CC1 [N-isopropyl-4-[1-methyl-7-(2-naphthyl)-2-oxo-1,2-dihydro-3H-imidazo[4,5-b]pyridin-3-yl]piperidine-1-carboxamide]	1.07	0.26
c1ccc2cc(-c3ccnc4c3nc(C3CCCC3)n4C3CCNCC3)ccc2c1 [2-cyclopentyl-7-(2-naphthyl)-3-piperidin-4-yl-3H-imidazo[4,5-b]pyridine]	1.46	–
CC(=O)n1cc(-c2nc3c(-c4ccc5ccccc5c4)ccnc3n2C2CCNCC2)c2ccccc21 [2-(1-acetyl-1H-indol-3-yl)-7-(2-naphthyl)-3-piperidin-4-yl-3H-imidazo[4,5-b]pyridine]	1.48	–
c1ccc(-c2nc3c(-c4ccc5ccccc5c4)ccnc3n2C2CCNCC2)cc1 [7-(2-naphthyl)-2-phenyl-3-piperidin-4-yl-3H-imidazo[4,5-b]pyridine]	1.23	0.05

— US20090069319A1, “IMIDAZOPYRIDINE ANALOGS AND THEIR USE AS AGONISTS OF THE WNT-BETA-CATENIN CELLULAR MESSAGING SYSTEM” (Wyeth, priority 2007, published 2009)
